# Measurements reported in patent publication US20030219427A1, “TPL-2/COT kinase and methods of use” (priority 1998, published 2003).
# Entries after “also recorded” stand apart in the source; their conditions may differ. Peptide text beside a SMILES is read from it. * marks the point of attachment. Cbz = O=C(OCc1ccccc1)*
# T1: HA-p105(369-969) (Homo sapiens (Human), UniProt P19838 368-968)
# T1 construct: also called p105?N
# T1 sequence: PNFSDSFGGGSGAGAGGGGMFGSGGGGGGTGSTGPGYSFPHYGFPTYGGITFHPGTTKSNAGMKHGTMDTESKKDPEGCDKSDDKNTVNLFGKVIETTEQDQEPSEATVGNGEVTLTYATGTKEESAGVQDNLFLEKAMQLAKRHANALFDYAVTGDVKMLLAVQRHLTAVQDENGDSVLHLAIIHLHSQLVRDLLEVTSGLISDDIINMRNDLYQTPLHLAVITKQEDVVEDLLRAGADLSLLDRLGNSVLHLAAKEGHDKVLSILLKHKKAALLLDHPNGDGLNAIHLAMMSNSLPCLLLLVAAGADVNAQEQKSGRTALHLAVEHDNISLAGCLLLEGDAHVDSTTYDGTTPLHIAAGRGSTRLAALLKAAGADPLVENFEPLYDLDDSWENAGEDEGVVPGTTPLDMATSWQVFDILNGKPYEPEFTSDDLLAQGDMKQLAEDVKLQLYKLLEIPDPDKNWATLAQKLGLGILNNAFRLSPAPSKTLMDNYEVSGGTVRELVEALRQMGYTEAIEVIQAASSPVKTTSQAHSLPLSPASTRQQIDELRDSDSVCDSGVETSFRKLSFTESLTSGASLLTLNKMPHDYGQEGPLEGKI
# B1: HA-p105 (other, not shown: small tags and cut ends)
# chain: MAEDDPYLGRPEQMFHLDPSLTHTIFNPEVFQPQMALPTADGPYLQILEQPKQRGFRFRYVCEGPSHGGLPGASSEKNKKSYPQVKICNYVGPAKVIVQLVTNGKNIHLHAHSLVGKHCEDGICTVTAGPKDMVVGFANLGILHVTKKKVFETLEARMTEACIRGYNPGLLVHPDLAYLQAEGGGDRQLGDREKELIRQAALQQTKEMDLSVVRLMFTAFLPDSTGSFTRRLEPVVSDAIYDSKAPNASNLKIVRMDRTAGCVTGGEEIYLLCDKVQKDDIQIRFYEEEENGGVWEGFGDFSPTDVHRQFAIVFKTPKYKDINITKPASVFVQLRRKSDLETSEPKPFLYYPEIKDKEEVQRKRQKLMPNFSDSFGGGSGAGAGGGGMFGSGGGGGGTGSTGPGYSFPHYGFPTYGGITFHPGTTKSNAGMKHGTMDTESKKDPEGCDKSDDKNTVNLFGKVIETTEQDQEPSEATVGNGEVTLTYATGTKEESAGVQDNLFLEKAMQLAKRHANALFDYAVTGDVKMLLAVQRHLTAVQDENGDSVLHLAIIHLHSQLVRDLLEVTSGLISDDIINMRNDLYQTPLHLAVITKQEDVVEDLLRAGADLSLLDRLGNSVLHLAAKEGHDKVLSILLKHKKAALLLDHPNGDGLNAIHLAMMSNSLPCLLLLVAAGADVNAQEQKSGRTALHLAVEHDNISLAGCLLLEGDAHVDSTTYDGTTPLHIAAGRGSTRLAALLKAAGADPLVENFEPLYDLDDSWENAGEDEGVVPGTTPLDMATSWQVFDILNGKPYEPEFTSDDLLAQGDMKQLAEDVKLQLYKLLEIPDPDKNWATLAQKLGLGILNNAFRLSPAPSKTLMDNYEVSGGTVRELVEALRQMGYTEAIEVIQAASSPVKTTSQAHSLPLSPASTRQQIDELRDSDSVCDSGVETSFRKLSFTESLTSGASLLTLNKMPHDYGQEGPLEGKI
# B2: Flag-COT(30-467) (enzyme, not shown: small tags and cut ends)
# chain: MENLYASEEPAVYEPSLMTMCQDSNQNDERSKSLLLSGQEVPWLSSVRYGTVEDLLAFANHISNTAKHFYGQRPQESGILLNMVITPQNGRYQIDSDVLLIPWKLTYRNIGSDFIPRGAFGKVYLAQDIKTKKRMACKLIPVDQFKPSDVEIQACFRHENIAELYGAVLWGETVHLFMEAGEGGSVLEKLESCGPMREFEIIWVTKHVLKGLDFLHSKKVIHHDIKPSNIVFMSTKAVLVDFGLSVQMTEDVYFPKDLRGTEIYMSPEVILCRGHSTKADIYSLGATLIHMQTGTPPWVKRYPRSAYPSYLYIIHKQAPPLEDIADDCSPGMRELIEASLERNPNHRPRAADLLKHEALNPPREDQPRCTSLDSALLERKRLLSRKELELPENIADSSCTGSTEESEMLKRQRSLYIDLGALAGYFNLVRGPPTLEYG
# B3: Flag-COT(30-397) (enzyme, not shown: small tags and cut ends)
# chain: MENLYASEEPAVYEPSLMTMCQDSNQNDERSKSLLLSGQEVPWLSSVRYGTVEDLLAFANHISNTAKHFYGQRPQESGILLNMVITPQNGRYQIDSDVLLIPWKLTYRNIGSDFIPRGAFGKVYLAQDIKTKKRMACKLIPVDQFKPSDVEIQACFRHENIAELYGAVLWGETVHLFMEAGEGGSVLEKLESCGPMREFEIIWVTKHVLKGLDFLHSKKVIHHDIKPSNIVFMSTKAVLVDFGLSVQMTEDVYFPKDLRGTEIYMSPEVILCRGHSTKADIYSLGATLIHMQTGTPPWVKRYPRSAYPSYLYIIHKQAPPLEDIADDCSPGMRELIEASLERNPNHRPRAADLLKHEALNPPREDQPR
# B4: recombinant p105808-892 protein (p105 DD) (other)
# chain: DMKQLAEDVKLQLYKLLEIPDPDKNWATLAQKLGLGILNNAFRLSPAPSKTLMDNYEVSGGTVRELVEALRQMGYTEAIEVIQAA
# What was measured:
# [1] = target: T2, TPL-2/COT kinase (FLAG-COT (30-397)) (Homo sapiens, UniProt P41279); assay: TPL-2/COT kinase assay and inhibitor screening (COT autophosphorylation and phosphorylation of GST-IκB-α); format: biochemical; settings: for inhibitory activity on COT autophosphorylation and phosphorylation of a COT target (IκB-α): initial screen at 100 μM in duplicate; for IC50: retested at 100 μM, 10 μM and 1 μM, compared to DMSO vehicle control, read-out: IC50 for TPL-2 inhibition (inhibits TPL-2 kinase activity by 50%)
# T2 construct: made in house; host or cells: human 293A cells, transient transfection of a pcDNA vector, anti-FLAG immunoprecipitation
# Protocol: FLAG-tagged COT protein was expressed in 293A cells by transfection. Typically, 24 h before transfection, human 293A cells (Quantum) were plated at 2×10^6 cells per 10 cm plate. A transfection mixture was prepared comprising 60 μl Lipofectamine (Gibco) and 800 μl Optimem (Gibco) in 15 ml tube. In. a separate tube, 8 μg of DNA encoding a FLAG-tagged COT(30-397) gene in a pcDNA vector was added to 800 μl Optimem. The contents of each tube were then mixed gently with a pipette, and allowed to incubate at room temperature for 25 min. Cells were washed once with Optimem and incubated with the transfection mixture and 6.4 ml of Optimem and allowed to incubate 5 h at 37° C. and 5% CO2. Cells were then incubated with 8 ml DMEM+10% FBS+L-glutamine on day 1, DMEM+5% FBS+L-glutamine on day 2 and harvested 48 h post-transfection.
# Transfected 293A cells expressing FLAG-COT (30-397) were lysed on ice for 15 min in lysis buffer (1% Triton X-100, 50 mM Tris-HCl pH 7.5, 150 mM NaCl, 1 mM EDTA, 1 mM EGTA, 20 mM NaF, 10 mM Na4P2O7, 50 mM Na3VO4 plus Complete protease inhibitors (Boehringer)) and lysates were centrifuged (14,000 rpm for 10 min at 4° C.) and supernatants were collected. Immunoprecipitations were performed using FLAG Ab gel (Sigma) at 50 μg Ab per ml of lysate for 3 h at 4° C. with mixing. Gel beads were washed at 4° C. twice with lysis buffer and then twice with wash buffer (50 mM Tris-HCl pH 7.5, 100 mM NaCl, 0.1 mM EGTA and 1 mM DTT). Gel beads were then resuspended in wash buffer and aliquoted into tubes for various kinase reactions.
# A TPL-2/COT kinase assay was used to screen various candidate TPL-2/COT kinase inhibitors. The kinase assay was performed a follows. A TPL-2 kinase (i.e., FLAG-COT (30-397)) bound on gel beads was incubated with 2 μg of a target polypeptide substrate (i.e., GST IκB-α (1-50) (Boston Biologicals) in kinase buffer (50 mM Tris-HCl pH 7.5, 10 mM MgCl2, 1 mM EGTA, 2 mM DTT and 0.01% Brij 35) in the presence of an appropriate radiolabel (30 μM ATP and 5 μCi γ-^32P-ATP (Amersham)) for 10 min at 25° C. Reactions were performed in the presence or absence of candidate compounds for inhibitor activity that were prepared as 10 mM stock solutions in 100% DMSO. The test compounds were added to the kinase reaction mixture immediately before addition of […]. Reactions were stopped by the addition of 5×SDS sample buffer, heating at 100° C. for 3 min and supernatants were collected using centrifugation. The autophosphorylation of COT and phosphorylation of the target polypeptide, i.e., GST-IκB-α were analyzed by gel electrophoresis (10% SDS-PAGE) followed by transfer to nitrocellulose membranes and autoradiography. As a control to confirm equivalent levels of FLAG-COT(30-397) and GST-IκB-α proteins were used in the different kinase reactions and also equivalent gel loading, immunoblots were performed with anti-FLAG and anti-GST antibodies, respectively, on the same membranes used for autoradiography. Inhibition of COT kinase activity, either autophosphorylation activity or phosphorylation of the target polypeptide GST-IκB-α was quantitated by scanning of autoradiographs (FIG. 13). Compounds that altered the level of these activities were further analyzed as described below.
# As similarly described above, a TPL-2 polypeptide expressed in insect cells was tested for kinase activity using a target polypeptide in the presence or absence of a candidate modulator compound. […]
# [2] = tested on: TPL-2-induced myc-p105 proteolysis in 3T3 cells; assay: Pulse-chase metabolic labeling of TPL-2-induced myc-p105 proteolysis; format: cell-based
# Protocol: Pulse-chase metabolic labeling is performed to determine whether TPL-2 regulates the proteolysis of myc-p105 in 3T3 fibroblasts. For pulse-chase metabolic labeling, NIH-3T3 fibroblasts are transiently transfected using LipofectAMINE (Gibco-BRL) (Huby, et al., (1997) J. Cell. Biol. 137, 1639-1649). Preparation of cytoplasmic and nuclear fractions is performed as described (Watanabe, et al., (1997)
# EMBO J. 16, 3609-3620). For pulse-chase metabolic labeling, 2.7×10^5 3T3 cells per 60 mm dish (Nunc) are transfected with the indicated expression vectors. After 24 h, cells are washed and cultured in Met/Cys-free medium for 1 h. Cells are then labeled with 145 MBq of [^35S]-Met/[^35S]-Cys (Pro-Mix, Amersham-Pharmacia Biotech) per dish for 30 min and after washing, chased in complete medium for the indicated times. […] MG132 proteasome inhibitor (Biomol Research labs) is added at […] during the last 15 min of the Met/Cys starvation period and is maintain throughout the chase. Labeled bands are quantified by laser densitometry using a Molecular Dynamics Personal Densitometer. All pulse-chase experiments are performed on at least two occasions with similar results.
# The effect of the peptide aldehyde MG132, a potent inhibitor of the proteasome, is determined to investigate whether myc-p105 proteolysis induced by TPL-2 is mediated by the proteasome. […]
# [3] = target: Myc-TPL-2ΔC (Homo sapiens (Human), UniProt P41279 1-397); assay: cell-based or functional assay
# [4] = target: T1, HA-p105(369-969); assay: co-expression in Sf9 cells, purification of the complex from lysates
# [5] = target: Myc-TPL-2 (Homo sapiens (Human), UniProt P41279 1-467); assay: cell-based or functional assay
# [6] = target: T3, Myc-Raf1(CAAX) MEK kinase activity (Homo sapiens, UniProt P04049); assay: In vitro MEK kinase assay, activated Raf1; format: biochemical
# T3 construct: CAAX membrane-targeting motif (C); made in house
molecule,measurement,setting,value
C[S+]([O-])c1ccc(-c2nc(-c3ccncc3)c(-c3ccc(F)cc3)[nH]2)cc1 (stereo not drawn) [SB 203580],inhibitory activity on COT autophosphorylation and phosphorylation of a COT target (IκB-α),[1],little or no inhibitory activity
COc1cccc(-c2cc(=O)c3ccccc3o2)c1N [PD98059],inhibitory activity on COT autophosphorylation and phosphorylation of a COT target (IκB-α),[1],little or no inhibitory activity
"CCOC(=O)c1cnc2c(c1Nc1ccc(Sc3ccccc3)cc1)C(=O)CCC2 [ethyl 5-oxo-4-[4-(phenylsulfanyl)anilino]-5,6,7,8-tetrahydro-3-quinolinecarboxylate]",IC50,[1],10 µM
c1ccc(Oc2ccc3nccc(Nc4ccc(Sc5ccccc5)cc4)c3c2)cc1 [N-(6-phenoxy-4-quinolyl)-N-[4-(phenylsulfanyl)phenyl]amine],IC50,[1],50 µM
CN[C@@H]1C[C@H]2O[C@@](C)([C@@H]1OC)n1c3ccccc3c3c4c(c5c6ccccc6n2c5c31)C(=O)NC4 [staurosporine],inhibitory activity on COT autophosphorylation and phosphorylation of a COT target (IκB-α),[1],little or no inhibitory activity
CC(C)C[C@@H](C=O)NC(=O)[C@H](CC(C)C)NC(=O)[C@H](CC(C)C)NC(=O)OCc1ccccc1 [MG132] (Cbz-Leu-Leu-Leu-aldehyde),effect on TPL-2-induced increased turnover (proteolysis) of myc-p105,"[2]; 3T3 cells co-transfected with myc-p105 and TPL-2, drug maintained throughout chase",blocks increased turnover of myc-p105
same,effect on production of myc-p50,"[2]; TPL-2 co-expressing 3T3 cells, during the chase",completely prevents production of myc-p50; also recorded: completely blocked the production of myc-p50
B1,MEK kinase activity of TPL-2ΔC relative to wild type TPL-2 in cells expressing p105,[3],> 40 fold
B2,binding result,[4],binds
B3,binding result,[4],binds
B4,IC50 of inhibition of TPL-2 MEK kinase activity in vitro,[5],0.55 µM
same,effect on Myc-Raf1(CAAX) MEK kinase activity,[6],no effect
